Where a name gives a salt, the structure may show the parent alone.
melting point [°C] | Compound
96 | Cc1ccc(C(NC(=O)Cc2ccc(N3CCS(=O)(=O)CC3)cc2C)c2ccc(C)o2)c(N2CCCCC2)c1 (stereo not shown) (as salt: HCl) [Cpd. 18, 2-[4-(1,1-dioxo-1-thiomorpholin-4-yl)-2-methylphenyl]-N-{[4-methyl-2-(piperidin-1-yl)phenyl](5-methylfuran-2-yl)methyl}acetamide]
178 | Cc1ccc(C(NC(=O)Cc2ccc(N3CCS(=O)(=O)CC3)cc2C)c2ccc(C)o2)c(C)c1 (stereo not shown) (as salt: HCl) [Cpd. 19, N-[(2,4-dimethylphenyl)(5-methylfuran-2-yl)methyl]-2-[4-(1,1-dioxo-1-thiomorpholin-4-yl)-2-methylphenyl]acetamide]
91 | Cc1ccc(C(NC(=O)Cc2cnc(N3CCS(=O)(=O)CC3)nc2)c2ccc(C)o2)c(N2CCCCC2)c1 (stereo not shown) (as salt: HCl) [Cpd. 20, 2-[2-(1,1-dioxo-1-thiomorpholin-4-yl)pyrimidin-5-yl]-N-{[4-methyl-2-(piperidin-1-yl)phenyl](5-methylfuran-2-yl)methyl}acetamide]
173 | Cc1ccc(C(NC(=O)Cc2ccc(N3CCS(=O)(=O)CC3)cc2C)c2ccc(C)o2)c(Br)c1 (stereo not shown) (as salt: HCl) [Cpd. 21, N-[(2-bromo-4-methylphenyl)(5-methylfuran-2-yl)methyl]-2-[4-(1,1-dioxo-1-thiomorpholin-4-yl)-2-methylphenyl]acetamide]
104 | Cc1ccc(C(NC(=O)Cc2ccc(N3CCS(=O)(=O)CC3)cc2)c2ccccc2)c(N2CC3CC3C2)c1 (stereo not shown) (as salt: HCl) [Cpd. 22, N-[(2-{3-azabicyclo[3.1.0]hexan-3-yl}-4-methylphenyl)(phenyl)methyl]-2-[4-(1,1-dioxo-1-thiomorpholin-4-yl)phenyl]acetamide]
109 | Cc1ccc(C(NC(=O)Cc2ccc(N3CCS(=O)(=O)CC3)c(C)c2)c2ccccc2)c(N2CC3CC3C2)c1 (stereo not shown) (as salt: HCl) [Cpd. 23, N-[(2-{3-azabicyclo[3.1.0]hexan-3-yl}-4-methylphenyl)(phenyl)methyl]-2-[4-(1,1-dioxo-1-thiomorpholin-4-yl)-3-methylphenyl]acetamide]
90 | Cc1ccc(C(NC(=O)Cc2ccc(N3CCS(=O)(=O)CC3)cc2)c2ccc(C)o2)c(C(F)(F)F)c1 (stereo not shown) (as salt: HCl) [Cpd. 24, 2-[4-(1,1-dioxo-1-thiomorpholin-4-yl)phenyl]-N-{[4-methyl-2-(trifluoromethyl)phenyl](5-methylfuran-2-yl)methyl}acetamide]
61 | Cc1ccc(C(NC(=O)Cc2ccc(N3CCOCC3)nc2)c2ccc(C)o2)c(N2CCCCC2)c1 (stereo not shown) (as salt: HCl) [Cpd. 25, N-{[4-methyl-2-(piperidin-1-yl)phenyl](5-methylfuran-2-yl)methyl}-2-[6-(morpholin-4-yl)pyridin-3-yl]acetamide]
69 | Cc1ccc(C(NC(=O)Cc2cnc(N3CCOCC3)nc2)c2ccc(C)o2)c(N2CCCCC2)c1 (stereo not shown) (as salt: HCl) [Cpd. 26, N-{[4-methyl-2-(piperidin-1-yl)phenyl](5-methylfuran-2-yl)methyl}-2-[2-(morpholin-4-yl)pyrimidin-5-yl]acetamide]
102 | Cc1ccc(C(NC(=O)Cc2ccc(N3CCS(=O)(=O)CC3)nc2)c2ccc(C)o2)c(N2CCCCC2)c1 (stereo not shown) (as salt: HCl) [Cpd. 27, 2-[6-(1,1-dioxo-1-thiomorpholin-4-yl)pyridin-3-yl]-N-{[4-methyl-2-(piperidin-1-yl)phenyl](5-methylfuran-2-yl)methyl}acetamide]
90 | COc1cc(CC(=O)NC(c2ccc(C)o2)c2ccc(C)cc2N2CCCCC2)ccc1N1CCS(=O)(=O)CC1 (stereo not shown) (as salt: HCl) [Cpd. 29, 2-[4-(1,1-dioxo-1-thiomorpholin-4-yl)-3-methoxyphenyl]-N-{[4-methyl-2-(piperidin-1-yl)phenyl](5-methylfuran-2-yl)methyl}acetamide]
88 | COc1ccc(CC(=O)NC(c2ccc(C)o2)c2ccc(C)cc2N2CCCCC2)cc1N1CCS(=O)(=O)CC1 (stereo not shown) (as salt: HCl) [Cpd. 30, 2-[3-(1,1-dioxo-1-thiomorpholin-4-yl)-4-methoxyphenyl]-N-{[4-methyl-2-(piperidin-1-yl)phenyl](5-methylfuran-2-yl)methyl}acetamide]
75 | Cc1ccc(C(NC(=O)C2(c3ccc(N4CCS(=O)(=O)CC4)cc3)CC2)c2ccc(C)o2)c(C)c1 (stereo not shown) (as salt: HCl) [Cpd. 31, N-[(2,4-dimethylphenyl)(5-methylfuran-2-yl)methyl]-1-[4-(1,1-dioxo-1-thiomorpholin-4-yl)phenyl]cyclopropane-1-carboxamide]
98 | Cc1ccc(C(NC(=O)C2(c3ccc(N4CCS(=O)(=O)CC4)cc3)CC2)c2ccc(C)o2)c(N2CCCCC2)c1 (stereo not shown) (as salt: HCl) [Cpd. 32, 1-[4-(1,1-dioxo-1-thiomorpholin-4-yl)phenyl]-N-{[4-methyl-2-(piperidin-1-yl)phenyl](5-methylfuran-2-yl)methyl}cyclopropane-1-carboxamide]
224 | Cc1ccc(C(NC(=O)Cc2cnc(N3CCS(=O)(=O)CC3)nc2)c2ccc(C)o2)c(C(F)(F)F)c1 (stereo not shown) (as salt: HCl) [Cpd. 33, 2-[2-(1,1-dioxo-1-thiomorpholin-4-yl)pyrimidin-5-yl]-N-{[4-methyl-2-(trifluoromethyl)phenyl](5-methylfuran-2-yl)methyl}acetamide]
199 | Cc1ccc(C(NC(=O)Cc2cnc(N3CCS(=O)(=O)CC3)nc2)c2ccc(C)o2)c(Br)c1 (stereo not shown) (as salt: HCl) [Cpd. 34, N-[(2-bromo-4-methylphenyl)(5-methylfuran-2-yl)methyl]-2-[2-(1,1-dioxo-1-thiomorpholin-4-yl)pyrimidin-5-yl]acetamide]
105 | Cc1ccc(C(NC(=O)Cc2cnc(N3CCS(=O)(=O)CC3)nc2)c2ccc(C)o2)c(N2CC3CC3C2)c1 (stereo not shown) (as salt: HCl) [Cpd. 36, N-[(2-{3-azabicyclo[3.1.0]hexan-3-yl}-4-methylphenyl)(5-methylfuran-2-yl)methyl]-2-[2-(1,1-dioxo-1-thiomorpholin-4-yl)pyrimidin-5-yl]acetamide]
106 | Cc1ccc(C(NC(=O)C2(c3ccc(N4CCS(=O)(=O)CC4)c(Br)c3)CC2)c2ccc(C)o2)c(N2CCCCC2)c1 (stereo not shown) (as salt: HCl) [Cpd. 37, 1-[3-bromo-4-(1,1-dioxo-1-thiomorpholin-4-yl)phenyl]-N-{[4-methyl-2-(piperidin-1-yl)phenyl](5-methylfuran-2-yl)methyl}cyclopropane-1-carboxamide]
99 | Cc1ccc(C(NC(=O)Cc2cnc(N3CCS(=O)(=O)CC3)nc2C)c2ccc(C)o2)c(N2CCCCC2)c1 (stereo not shown) (as salt: HCl) [Cpd. 38, 2-[2-(1,1-dioxo-1-thiomorpholin-4-yl)-4-methylpyrimidin-5-yl]-N-{[4-methyl-2-(piperidin-1-yl)phenyl](5-methylfuran-2-yl)methyl}acetamide]
118 | Cc1ccc(C(NC(=O)Cc2ccc(O)c(N3CCS(=O)(=O)CC3)c2)c2ccc(C)o2)c(N2CCCCC2)c1 (stereo not shown) (as salt: HCl) [Cpd. 39, 2-[3-(1,1-dioxo-1-thiomorpholin-4-yl)-4-hydroxyphenyl]-N-{[4-methyl-2-(piperidin-1-yl)phenyl](5-methylfuran-2-yl)methyl}acetamide]
67 | Cc1ccc(C(NC(=O)C(C)(C)c2ccc(N3CCS(=O)(=O)CC3)cc2)c2ccc(C)o2)c(C)c1 (stereo not shown) (as salt: HCl) [Cpd. 40, N-[(2,4-dimethylphenyl)(5-methylfuran-2-yl)methyl]-2-[4-(1,1-dioxo-1-thiomorpholin-4-yl)phenyl]-2-methylpropanamide]
79 | Cc1ccc(C(NC(=O)C2(c3ccc(N4CCS(=O)(=O)CC4)cc3)CCC2)c2ccc(C)o2)c(C)c1 (stereo not shown) (as salt: HCl) [Cpd. 41, N-[(2,4-dimethylphenyl)(5-methylfuran-2-yl)methyl]-1-[4-(1,1-dioxo-1-thiomorpholin-4-yl)phenyl]cyclobutane-1-carboxamide]
211 | Cc1ccc(C(NC(=O)Cc2cnc(N3CCS(=O)(=O)CC3)nc2C)c2ccc(C)o2)c(C)c1 (stereo not shown) (as salt: HCl) [Cpd. 42, N-[(2,4-dimethylphenyl)(5-methylfuran-2-yl)methyl]-2-[2-(1,1-dioxo-1-thiomorpholin-4-yl)-4-methylpyrimidin-5-yl]acetamide]
146 | Cc1ccc(C(NC(=O)Cc2ccc(O)c(N3CCS(=O)(=O)CC3)c2)c2ccc(C)o2)c(C)c1 (stereo not shown) (as salt: HCl) [Cpd. 43, N-[(2,4-dimethylphenyl)(5-methylfuran-2-yl)methyl]-2-[3-(1,1-dioxo-1-thiomorpholin-4-yl)-4-hydroxyphenyl]acetamide]
77 | COc1ccc(C(NC(=O)C2(c3ccc(N4CCS(=O)(=O)CC4)cc3)CC2)c2ccc(C)o2)c(C)c1 (stereo not shown) (as salt: HCl) [Cpd. 44, 1-[4-(1,1-dioxo-1-thiomorpholin-4-yl)phenyl]-N-[(4-methoxy-2-methylphenyl)(5-methylfuran-2-yl)methyl]cyclopropane-1-carboxamide]
106 | COc1ccc(C(NC(=O)Cc2cnc(N3CCS(=O)(=O)CC3)nc2)c2ccc(C)o2)c(N2CCCCCC2)c1 (stereo not shown) (as salt: HCl) [Cpd. 45, N-{[2-(azepan-1-yl)-4-methoxyphenyl](5-methylfuran-2-yl)methyl}-2-[2-(1,1-dioxo-1-thiomorpholin-4-yl)pyrimidin-5-yl]acetamide]
90 | COc1ccc(C(NC(=O)C2(c3ccc(N4CCS(=O)(=O)CC4)cc3)CC2)c2ccc(C)o2)c(N2CCCCCC2)c1 (stereo not shown) (as salt: HCl) [Cpd. 46, N-{[2-(azepan-1-yl)-4-methoxyphenyl](5-methylfuran-2-yl)methyl}-1-[4-(1,1-dioxo-1-thiomorpholin-4-yl)phenyl]cyclopropane-1-carboxamide]
102 | Cc1ccc(C(NC(=O)Cc2ccc(N3CCS(=O)(=O)CC3)cn2)c2ccc(C)o2)c(N2CCCCC2)c1 (stereo not shown) (as salt: HCl) [Cpd. 47, 2-[5-(1,1-dioxo-1-thiomorpholin-4-yl)pyridin-2-yl]-N-{[4-methyl-2-(piperidin-1-yl)phenyl](5-methylfuran-2-yl)methyl}acetamide]

— US11077115B2, “Rorgamma modulators and uses thereof” (Genfit, priority 2017, dated 2021)
